Data reported in ChEMBL document CHEMBL3779793, “Squaraines bearing halogenated moieties as anticancer photosensitizers: Synthesis, characterization and biological evaluation” (Eur J Med Chem, 2016).
The source made the active and inactive calls. The calls are words filed in the database; no cut-off is given here.

Legend:
[1] = Induction of singlet oxygen generation in PBS at 5 uM measured within 5 to 10 mins by DPBF-based singlet oxygen trapping method in presence of light; format: physicochemical; conditions: buffer
[2] = Dark cytotoxicity against human HT1080 cells at 0.25 to 1 uM after 24 to 72 hrs by WST-1 assay; format: cell-based; conditions: ht-1080, 1 µM
[3] = Drug uptake in human HT1080 cells at 1 uM upto 6 hrs by flow cytometric analysis; format: ADME, cell-based; conditions: ht-1080, 6 h
HT-1080 [4] = experiment: Photocytotoxicity against human HT1080 cells at 1 uM preincubated for 24 hrs followed by red LED irradiation for 20 mins measured after 24 to 72 hrs by WST-1 assay; format: functional, cell-based
[5] = Dark cytotoxicity against human HT1080 cells at 2 to 10 uM after 24 to 72 hrs by WST-1 assay; format: cell-based; conditions: ht-1080, 10 µM
[6] = Drug uptake in human HT1080 cells at 1 uM by flow cytometric analysis; format: ADME, cell-based; conditions: ht-1080, 1 µM, TDE = time-dependent effect
HT-1080 [7] = experiment: Photocytotoxicity against human HT1080 cells at 1 uM preincubated for 24 hrs followed by red LED irradiation for 20 mins measured after 72 hrs by WST-1 assay; format: functional, cell-based
[8] = Drug uptake in human HT1080 cells at 1 uM upto 24 hrs by flow cytometric analysis; format: ADME, cell-based; conditions: ht-1080, 24 h
[9] = Induction of singlet oxygen generation in PBS at 5 uM measured within 60 mins by DPBF-based singlet oxygen trapping method in presence of light; format: physicochemical; conditions: buffer, 1 h
[10] = Dark cytotoxicity against human HT1080 cells at 2 uM after 24 to 72 hrs by WST-1 assay; format: cell-based; conditions: ht-1080, 2 µM
[11] = Drug uptake in mitochondria of human HT1080 cells at 1 uM incubated for 24 hrs by MitoTracker green dye based laser scanning confocal microscopy; format: ADME; conditions: ht-1080, 24 h
HT-1080 [12] = experiment: Induction of reactive oxygen species generation in human HT1080 cells at 1 uM preincubated for 24 hrs followed by red LED irradiation for 20 mins measured upto 15 mins by DCFH-DA probe based flow cytometry; format: functional, cell-based
HT-1080 [13] = experiment: Induction of reactive oxygen species generation in human HT1080 cells assessed as increase in integrated median fluorescence intensity at 1 uM preincubated for 24 hrs followed by red LED irradiation for 20 mins measured after 1 min by DCFH-DA probe based flow cytometry relative to control; format: functional
HT-1080 [14] = experiment: Induction of necrosis in human HT1080 cells at 1 uM preincubated for 24 hrs followed by red LED irradiation for 20 mins measured after 6 hrs by Annexin V Alexa Fluor and PI staining based flow cytometry; format: functional
[15] = Induction of necrosis in human HT1080 cells at 1 uM preincubated for 24 hrs measured after 6 hrs by Annexin V Alexa Fluor and PI staining based flow cytometry; format: cell-based; conditions: ht-1080, 6 h
[16] = Induction of apoptosis in human HT1080 cells at 1 uM preincubated for 24 hrs measured after 6 hrs by Annexin V Alexa Fluor and PI staining based flow cytometry; format: cell-based; conditions: ht-1080, 6 h
HT-1080 [17] = experiment: Increase in release of mitochondrial cytochrome c release in cytosolic extracts of human HT1080 cells at 1 uM preincubated for 24 hrs followed by red LED irradiation for 20 mins measured after 0.5 hrs by ELISA method; format: functional, cell-based
HT-1080 [18] = experiment: Increase in release of mitochondrial cytochrome c release in cytosolic extracts of human HT1080 cells at 1 uM preincubated for 24 hrs followed by red LED irradiation for 20 mins measured after 3 hrs by ELISA method; format: functional, cell-based
HT-1080 [19] = experiment: Induction of DNA damage in human HT1080 cells at 1 uM preincubated for 24 hrs followed by red LED irradiation for 20 mins measured after 30 mins by ARP probe based flow cytometry; format: functional, cell-based
[20] = Upregulation of BAX mRNA expression in human HT1080 cells at 1 uM preincubated for 24 hrs followed by red LED irradiation for 20 mins measured after 0.5 to 24 hrs by RT-PCR analysis; format: functional, cell-based; conditions: HT-1080
[21] = Upregulation of APAF1 mRNA expression in human HT1080 cells at 1 uM preincubated for 24 hrs followed by red LED irradiation for 20 mins measured after 0.5 to 24 hrs by RT-PCR analysis; format: functional, cell-based; conditions: HT-1080
[22] = Downregulation of BCL-2 mRNA expression in human HT1080 cells at 1 uM preincubated for 24 hrs followed by red LED irradiation for 20 mins measured after 0.5 to 24 hrs by RT-PCR analysis; format: functional, cell-based; conditions: HT-1080
[23] = Upregulation of TP-53 mRNA expression in human HT1080 cells at 1 uM preincubated for 24 hrs followed by red LED irradiation for 20 mins measured after 3 hrs by RT-PCR analysis; format: functional, cell-based; conditions: HT-1080
[24] = Upregulation of GPX1 mRNA expression in human HT1080 cells at 1 uM preincubated for 24 hrs followed by red LED irradiation for 20 mins measured after 3 to 24 hrs by RT-PCR analysis; format: functional, cell-based; conditions: HT-1080
[25] = Upregulation of GPX1 mRNA expression in human HT1080 cells at 1 uM preincubated for 24 hrs followed by red LED irradiation for 20 mins measured after 0.5 hrs by RT-PCR analysis relative to control; format: functional, cell-based; conditions: HT-1080
[26] = Upregulation of NQO1 mRNA expression in human HT1080 cells at 1 uM preincubated for 24 hrs followed by red LED irradiation for 20 mins measured after 0.5 hrs by RT-PCR analysis relative to control; format: functional, cell-based; conditions: HT-1080
[27] = Upregulation of NQO1 mRNA expression in human HT1080 cells at 1 uM preincubated for 24 hrs followed by red LED irradiation for 20 mins measured upto 24 hrs by RT-PCR analysis; format: functional, cell-based; conditions: HT-1080
[28] = Upregulation of SOD2 mRNA expression in human HT1080 cells at 1 uM preincubated for 24 hrs followed by red LED irradiation for 20 mins measured after 0.5 hrs by RT-PCR analysis relative to control; format: functional, cell-based; conditions: HT-1080
HT-1080 [29] = experiment: Photocytotoxicity against human HT1080 cells at 1 uM preincubated for 24 hrs followed by red LED irradiation for 20 mins measured after 48 to 72 hrs by WST-1 assay; format: functional, cell-based

For `CC1(C)C(/C=C2/C(=O)C(/C=C3\Nc4ccc(Br)cc4C3(C)C)=C2O)=Nc2ccc(Br)cc21`, the Activity [1] was “Active”, the Activity [2] was “Non-toxic” and the Drug uptake [3] was “Active”. The Activity (HT-1080 [4]) was “inactive” and the Activity [5] was “Dose-dependent effect”.
For `CCN1/C(=C/C2=C([O-])C(=C\C3=[N+](CC)c4ccc(I)cc4C3(C)C)/C2=O)C(C)(C)c2cc(I)ccc21`, the Activity [1] was “Active”, the Activity [2] was “Non-toxic” and the Drug uptake [6] was “tde”. The Activity (HT-1080 [4]) was “inactive” and the Activity [5] was “Dose-dependent effect”.
In the case of `CC1(C)C(/C=C2/C(=O)C(/C=C3\Nc4ccc(I)cc4C3(C)C)=C2O)=Nc2ccc(I)cc21`, the Activity [1] is reported as “Active”, the Activity [2] is reported as “Non-toxic” and the Drug uptake [3] is reported as “Active”. For the same compound, the Activity (HT-1080 [7]) was “Active” and the Activity [5] was “Dose-dependent effect”.
In the case of `CC1(C)C(/C=C2/C(=O)C(/C=C3\Nc4ccccc4C3(C)C)=C2O)=Nc2ccccc21`, the Activity [2] is reported as “Non-toxic”, the Drug uptake [8] is reported as “Active” and the Activity (HT-1080 [4]) is reported as “inactive”. For the same compound, the Activity [9] was “Active” and the Activity [5] was “Dose-dependent effect”.
With `CCCCN1/C(=C/C2=C([O-])C(=C\C3=[N+](CCCC)c4ccc(Br)cc4C3(C)C)/C2=O)C(C)(C)c2cc(Br)ccc21` the Activity [1] was “Active”, the Activity [10] was “Non-toxic” and the Activity [2] was “Non-toxic”. The Drug uptake [6] was “tde”, the Activity (HT-1080 [4]) was “Active” and the Drug uptake [11] was “Active”. The Activity (HT-1080 [12]) was “inactive”, the “fold change (FC)” value (HT-1080 [13]) was 15.32 and the Activity (HT-1080 [14]) was 81.9%. For the same compound, the Activity [15] was “Non-toxic”, the Activity [16] was “Non-toxic” and the Activity (HT-1080 [17]) was “Active”. For the same compound, the Activity (HT-1080 [18]) was “inactive”, the Activity (HT-1080 [19]) was “Active” and the Activity [20] was “inactive”. For the same compound, the Activity [21] was “inactive”, the Activity [22] was “Active” and the Activity [23] was “Active”. The Activity [24] was “inactive”, the fold change (FC) [25] was 34.6 and the fold change (FC) [26] was 3.39. For the same compound, the Activity [27] was “inactive”, the Activity [28] was “inactive” and the Activity [5] was “Dose-dependent effect”.
With `CCCCN1/C(=C/C2=C([O-])C(=C\C3=[N+](CCCC)c4ccc(I)cc4C3(C)C)/C2=O)C(C)(C)c2cc(I)ccc21` the Activity [1] was “Active”, the Activity [10] was “Non-toxic” and the Activity [2] was “Non-toxic”. The Drug uptake [6] was “tde”, the Activity (HT-1080 [4]) was “Active” and the Drug uptake [11] was “Active”. The Activity (HT-1080 [12]) was “inactive”, the “fold change (FC)” value (HT-1080 [13]) was 32 and the Activity (HT-1080 [14]) was 83%. The Activity [15] was “Non-toxic”, the Activity [16] was “Non-toxic” and the Activity (HT-1080 [17]) was “Active”. The Activity (HT-1080 [18]) was “inactive”, the Activity (HT-1080 [19]) was “Active” and the Activity [20] was “inactive”. For the same compound, the Activity [21] was “inactive”, the Activity [22] was “Active” and the Activity [23] was “inactive”. For the same compound, the Activity [24] was “inactive”, the fold change (FC) [25] was 54.6 and the fold change (FC) [26] was 5.56. The Activity [27] was “inactive”, the fold change (FC) [28] was 5.21 and the Activity [5] was “Dose-dependent effect”.
For `CCN1/C(=C/C2=C([O-])C(=C\C3=[N+](CC)c4ccc(Br)cc4C3(C)C)/C2=O)C(C)(C)c2cc(Br)ccc21`, the Activity [1] was “Active”, the Activity [10] was “Non-toxic” and the Activity [2] was “Non-toxic”. For the same compound, the Drug uptake [6] was “tde”, the Activity (HT-1080 [29]) was “Active” and the Activity [5] was “Dose-dependent effect”.
